{"source": "patent US5614370A", "about": "“Assay to identify human C5a antagonists and agonists” (Merck & Co., Inc., priority 1994, dated 1997)", "type_in_all_cases": "cell-based", "key": {"C5a receptor": {"biological_target": "T1, C5a receptor (Homo sapiens, UniProt P21730)", "T1 construct": "followed by a 20 μL aliquot of neutrophil membrane; endogenous in cells", "T1 sequence (P21730 1-350)": "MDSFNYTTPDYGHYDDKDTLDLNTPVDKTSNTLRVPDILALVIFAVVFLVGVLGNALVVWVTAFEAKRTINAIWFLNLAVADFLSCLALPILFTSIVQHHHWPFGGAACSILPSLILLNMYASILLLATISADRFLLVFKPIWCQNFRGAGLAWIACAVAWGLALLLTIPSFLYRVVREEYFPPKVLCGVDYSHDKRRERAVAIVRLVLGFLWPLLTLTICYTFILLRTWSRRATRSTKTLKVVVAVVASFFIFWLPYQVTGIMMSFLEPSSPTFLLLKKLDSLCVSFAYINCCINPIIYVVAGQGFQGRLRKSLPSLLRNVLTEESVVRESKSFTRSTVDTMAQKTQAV", "test": "Agonist activity over all C5a induced responses (chemotaxis, MPO release, calcium flux, GTPase activity, GTPγ-S binding)", "settings": "C089 tested up to and including 100 μM", "protocol": "The EC50 measures the concentration of compound at which a 50% maximal stimulation of a given biological response induced by C5a is achieved (chemotaxis, MPO release, calcium flux, GTPase activity or GTPγ-S binding), and the IC50 is the concentration at which 50% maximal inhibition of C5a binding is achieved.\n(§1) This assay was performed on human neutrophils as previously reported and it is a measure of C5a or peptide induced exocytosis (Rollins, T. E. and Springer, M. S. (1985) J. Biol. Chem. 260, 7157-7160).\n(§2) Ligand induced Ca^2+ fluxes were measured by following the change in Indo-1 induced fluorescence on a FACS analyzer as previously described (Van Riper, G., Siciliano, S. J., Fischer, P. A., Meurer, R., Springer, M. S. and Rosen, H. (1993) J. Exp. Med. 177, 851-856.).\nThis assay is a modification of the procedure described by Sims et. al. (Sims, T. J., Geissler, F. T. and Page, R. C. (1985) J. lmmunol. Meth. 78, 279-291 ). Chemotaxis was assayed in a 48 well Neuro Probe chamber (Neuro Probe, Bethesda, MD) using ^51 Cr-labelled cells. […] After preforming a gradient for 30 minutes at 37° C., 2×10^5 labelled cells were added to the upper chamber and allowed to migrate at 37° C. for one hour. The upper two polycarbonate filters were then discarded and the formed wells cut from the nitrocellulose membrane. The radioactivity present in these filters is a measure of the number of cells that migrated through both polycarbonate filters.\nThe method of Kupper et al. (Kupper, R. W., Dewald, B., Jakobs, K. H., Baggiolini, M. and Gierschik, P. (1992) Biochem. J. 282, 429-434) was adapted for use in microtiter plates. Neutrophil membranes were suspended in 50 mM triethanolamine-HCl, 5 mM MES, pH 7.3, containing 1 mM EDTA, 5 mM MgCl2, 143 mM NaCl, 0.16 % BSA, 1 mM ouabain, 1 mM AMP-PNP, 0.5 mM ATP, 2.5 U/mL creatine phosphokinase,. 10 mM creatine phosphate, 0.1 mM PMSF and 10 ng/mL each of leupeptin, aprotinin and chymostatin. 50 μL of membranes containing 1-5 μg protein were added to 50 μL of the same buffer containing the test agent and 0.25 μM [γ-^32 P]-GTP (2,000 cpm/pmol) in the wells of a U-shaped microtiter plate. After incubation for 15-30 rain at 29° C., 100 μL of a 10% (w/v) charcoal suspension in 100 mM H3 PO4 was added and plates were centrifuged at 2000 rpm for 5 min. 100 μL of the supernatant was transferred to an Optiplate microtiter plate and 100 μL of Microscint-40 scintillation cocktail was added. Plates were counted in a Packard TopCount microtiter plate counter."}, "human neutrophils [1]": {"test_system": "human neutrophils", "test": "Degranulation, myeloperoxidase (MPO) release from human neutrophils (agonism)", "settings": "for EC50: MPO release, read-out: ED50 for degranulation; for EC50/IC50 (degranulation/binding): ratio degranulation EC50 to binding IC50", "protocol": "(§3) FIG. 5A and 5B. Degranulation and Ca^2+ responses to the hexapeptides. […] The ED50 's for the degranulation are: C5a, 0.5 nM; C028, 0.2 μM; C026, 1 μM. C5a, maximally, released 57% of the total cellular content of MPO. The ability of these molecules to elicite a Ca^2+ -flux is shown in B. The concentrations used for C028 (10 μM), C026 (10 μM), C061 (100 μM) are those which produce a maximal flux. A saturating concentration was also used for C5a (1 nM).\nas §1\nThe functional properties of two of the peptides, C026, and C028, were originally described by Mollison et. al (Mollison, K. W., Krause, R. A., Fey, T. A., Miller, L., Wiedeman, P. e., Kawai, M., Lane, B., Luly, J. R. and Carter, G. W. (1992) FASEB J. 6, A2058). […] We have reinvestigated the degranulating activities of these peptides as measured by the release of myeloperoxidase (MPO) from human neutrophils. […] The EC50 /IC50 (degranulation/binding) for C028 is 8, the same as that measured for C5a (Table II, FIG. 5A). […] However, the difference in activity between C026 and C028 is significant and reproducible. Since the structural difference between the two is the substitution of an aromatic for an aliphatic residue (Phe for Cha) we chose to make additional changes at position 5 which further increased aromaticity. […] To further examine whether the differences in activity between the peptides reflects the increased aromaticity we synthesized a molecule with Leu, an aliphatic amino acid, at position 5 (C068, Table II)."}, "human neutrophils [2]": {"test_system": "human neutrophils", "test": "Ligand induced Ca2+ flux (Indo-1 fluorescence)", "settings": "FIG. 5B", "protocol": "as §3, §2\nFIG. 5B compares the maximal effects of each peptide (10-100 μM) with the response induced by C5a (1 nM)."}, "[3]": {"settings": "maximal effects, peptide 10-100 μM vs 1 nM C5a"}}, "note": "“Also recorded” adds a separate entry of the source. Non-standard residues stand in square brackets, D forms with d. Residues, ends and D or L forms follow the SMILES beside them. 1Nal = N[C@@H](Cc1cccc2ccccc12)C(=O)O; NMeF = CN[C@@H](Cc1ccccc1)C(=O)O; Cha = N[C@@H](CC1CCCCC1)C(=O)O; dCha = N[C@H](CC1CCCCC1)C(=O)O"}
{"molecule": "CC(C)C[C@H](NC(=O)[C@H](CC1CCCCC1)NC(=O)[C@H](CC1CCCCC1)NC(=O)[C@H](C)NC(=O)[C@H](CCCCN)NC(=O)[C@H](Cc1ccccc1)NC(=O)[C@@H](N)Cc1ccc(O)cc1)C(=O)N[C@H](Cc1ccccc1)C(=O)N[C@@H](CCCNC(=N)N)C(=O)O", "note": "[C009, Tyr Phe Lys Ala Cha Cha Leu dPhe Arg] (H-YFKA[Cha][Cha]L[dF]R-OH)", "values": [{"measurement": "agonist activity in words, all responses", "setting": "C5a receptor", "value": "C5a agonist"}]}
{"molecule": "CN[C@@H](Cc1ccccc1)C(=O)N[C@@H](CCCCN)C(=O)N1CCC[C@H]1C(=O)N[C@H](CC1CCCCC1)C(=O)N[C@@H](Cc1ccccc1)C(=O)N[C@H](CCCNC(=N)N)C(=O)O", "note": "[C026, NMeF--K--P-dCha-F-dR] (H-[NMeF]KP[dCha]F[dR]-OH)", "values": [{"measurement": "degranulating activity in words", "setting": "human neutrophils [1]; FIG. 5A", "value": "partial agonist for degranution induction; also recorded: retains substantial degranulating activity"}, {"measurement": "EC50", "setting": "human neutrophils [1]; FIG. 5A", "value": 1000, "unit": "nM"}, {"measurement": "MPO release relative to the maximal release produced by C5a or C028", "setting": "human neutrophils [1]; maximal effect, FIG. 5A", "value": 50, "unit": "%"}, {"measurement": "EC50/IC50 (degranulation/binding)", "setting": "human neutrophils [1]", "value": 20}, {"measurement": "concentration which produces a maximal Ca2+ flux", "setting": "human neutrophils [2]", "value": 10, "unit": "µM"}, {"measurement": "Ca2+ response relative to C028 and C5a", "setting": "human neutrophils [2]; [3]", "value": 50, "unit": "%"}]}
{"molecule": "CN[C@@H](Cc1ccccc1)C(=O)N[C@@H](CCCCN)C(=O)N1CCC[C@H]1C(=O)N[C@H](CC1CCCCC1)C(=O)N[C@@H](CC1CCCCC1)C(=O)N[C@H](CCCNC(=N)N)C(=O)O", "note": "[C028, MePhe Lys Pro dCha Cha dArg] (H-[NMeF]KP[dCha][Cha][dR]-OH)", "values": [{"measurement": "degranulating activity in words", "setting": "human neutrophils [1]; FIG. 5A", "value": "full agonist for degranulation"}, {"measurement": "EC50", "setting": "human neutrophils [1]; FIG. 5A", "value": 200, "unit": "nM"}, {"measurement": "EC50/IC50 (degranulation/binding)", "setting": "human neutrophils [1]", "value": 8}, {"measurement": "concentration which produces a maximal Ca2+ flux", "setting": "human neutrophils [2]", "value": 10, "unit": "µM"}, {"measurement": "Ca2+ response in words", "setting": "human neutrophils [2]; [3]", "value": "comparable elevations in Ca^2+ level"}, {"measurement": "agonist activity in words, all responses", "setting": "C5a receptor", "value": "almost complete agonists of all of these responses"}]}
{"molecule": "CN[C@@H](Cc1ccccc1)C(=O)N[C@@H](CCCCN)C(=O)N1CCC[C@H]1C(=O)N[C@H](CC1CCCCC1)C(=O)N[C@@H](Cc1cccc2ccccc12)C(=O)N[C@H](CCCNC(=N)N)C(=O)O", "note": "[C061] (H-[NMeF]KP[dCha][1Nal][dR]-OH)", "values": [{"measurement": "degranulating activity in words", "setting": "human neutrophils [1]; FIG. 5A", "value": "totally devoid of degranulating activity"}, {"measurement": "concentration which produces a maximal Ca2+ flux", "setting": "human neutrophils [2]", "value": 100, "unit": "µM"}, {"measurement": "Ca2+ response in words", "setting": "human neutrophils [2]; [3]", "value": "only a very small increase in intracellular Ca^2+ levels; also recorded: small increase in the level of intracellular Ca^2+"}]}
{"molecule": "CN[C@@H](Cc1ccccc1)C(=O)N[C@@H](CCCCN)C(=O)N1CCC[C@H]1C(=O)N[C@H](CC1CCCCC1)C(=O)N[C@@H](Cc1c[nH]c2ccccc12)C(=O)N[C@H](CCCNC(=N)N)C(=O)O", "note": "[C089]", "values": [{"measurement": "degranulating activity in words", "setting": "human neutrophils [1]; FIG. 5A", "value": "totally devoid of degranulating activity"}, {"measurement": "Ca2+ response in words", "setting": "human neutrophils [2]; [3]", "value": "fails to stimulate a detectable change in Ca^2+ level"}, {"measurement": "agonist activity in words, all responses", "setting": "C5a receptor", "value": "without agonist activity in any of the assays; also recorded: do not induce a response; also recorded: completely devoid of agonist activity"}]}
{"molecule": "C5a: 74 amino acid protein derived from the fifth component of serum complement during complement activation (protein, UniProt P01031 678-751, looked up, C5a anaphylatoxin) C5a anaphylatoxin: TLQKKIEEIAAKYKHSVVKKCCYDGACVNNDETCEQRAARISLGPRCIKAFTECCVVASQLRANISHKDMQLGR", "values": [{"measurement": "release of total cellular MPO", "setting": "human neutrophils [1]; 0.4 nM C5a or 8 nM IL-8, cells without C089", "value": 22, "unit": "%"}, {"measurement": "EC50", "setting": "human neutrophils [1]; FIG. 5A", "value": 0.5, "unit": "nM"}, {"measurement": "maximal release of total cellular content of MPO", "setting": "human neutrophils [1]; maximal, FIG. 5A", "value": 57, "unit": "%"}, {"measurement": "EC50/IC50 (degranulation/binding)", "setting": "human neutrophils [1]", "value": 8}, {"measurement": "Ca2+ response in words", "setting": "human neutrophils [2]; [3]", "value": "comparable elevations in Ca^2+ level"}]}
